Assay results reported in the supplement of paper PMC8024199.
± gives the standard deviation of the averaged measurements.

Columns and labels:
Assay in all cases: drug sensitivity score (DSS) (DSS score); higher = more sensitive (stronger growth inhibition); extreme values may be limits of the assay
[1] = system: Ba/F3 P210-BCR-ABL1 RUNX1-/- (mouse)
Outline: (§1)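 Each value is a drug sensitivity score derived from CellTiter-Glo luminescence scaled between vehicle and positive-control wells. Mouse Ba/F3 clones, CRISPR/Cas9-edited at a target exon or edited controls, were seeded at 10,000 cells per well in RPMI with 10% FBS and treated for 72 h at 37 °C and 5% CO2. Compounds from a 528-compound library were tested at five concentrations over a 10,000-fold range, and scores were averaged over two replicates.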

[2] = system: Ba/F3 P210-BCR-ABL1 RUNX1wt/wt control (mouse)
Outline: as §1

[3] = system: Ba/F3 P210-BCR-ABL1 RUNX1-/mut (mouse)
Outline: as §1

**Q.** For `COc1ccc(-c2nc(N3CCOCC3)c3sc(CN(C)c4ncc(C(=O)NO)cn4)cc3n2)cn1` [CUDC-907], which drug sensitivity score [1] is on record?
**A.** 40.9 ± 0.85

**Q.** And the drug sensitivity score [2]?
**A.** 39 ± 0.57

**Q.** And the drug sensitivity score [3]?
**A.** 43.65 ± 0.35

**Q.** What does the source list for `CO[C@H]1C(=O)[C@]2(C)[C@@H](OC)C[C@H]3OC[C@@]3(OC(C)=O)[C@H]2[C@H](OC(=O)c2ccccc2)[C@]2(O)C[C@H](OC(=O)[C@H](O)[C@@H](NC(=O)OC(C)(C)C)c3ccccc3)C(C)=C1C2(C)C` [Cabazitaxel]?
**A.** drug sensitivity score [1]: 35.9 ± 1.4; drug sensitivity score [2]: 13.55 ± 0.071; drug sensitivity score [3]: 26.2 ± 3.5

**Q.** What does the source list for `COc1cc2nccc(Oc3ccc(NC(=O)C4(C(=O)Nc5ccc(F)cc5)CC4)cc3)c2cc1OC` [Cabozantinib]?
**A.** drug sensitivity score [1]: 4.8 ± 0.85; drug sensitivity score [2]: 0; drug sensitivity score [3]: 1.8 ± 1.6

**Q.** Which results are given for `CNC(=O)c1ccc(-c2cnc3ncc(Cc4ccc5ncccc5c4)n3n2)cc1F` [Capmatinib]?
**A.** drug sensitivity score [1]: 0.2 ± 0.28; drug sensitivity score [2]: 0.25 ± 0.35; drug sensitivity score [3]: 0

**Q.** For `O=C(O)C1(C(=O)O)CCC1.[NH2-].[NH2-].[Pt+2]` [Carboplatin], which drug sensitivity score [1] is on record?
**A.** 6.65 ± 1.8

**Q.** And the drug sensitivity score [2]?
**A.** 3.45 ± 0.21

**Q.** And the drug sensitivity score [3]?
**A.** 6.9 ± 1.8

**Q.** Which drug sensitivity score [1] does the source give for `COc1cc2c(Oc3ccc4[nH]c(C)cc4c3F)ncnc2cc1OCCCN1CCCC1` [Cediranib] here?
**A.** 0

**Q.** And the drug sensitivity score [2]?
**A.** 0

**Q.** What about the drug sensitivity score [3] of the same compound?
**A.** 0

**Q.** `CCS(=O)(=O)N1CCN(c2ccc(Nc3ncc(C(N)=O)c(NC4CC4)n3)cc2)CC1` [Cerdulatinib] was tested. Which drug sensitivity score [1] did it give?
**A.** 14.8 ± 0.64

**Q.** And the drug sensitivity score [2]?
**A.** 9.5 ± 0.42

**Q.** What about the drug sensitivity score [3] of the same compound?
**A.** 13.1 ± 1.6

**Q.** With `Cc1cc(Nc2ncc(Cl)c(Nc3ccccc3S(=O)(=O)C(C)C)n2)c(OC(C)C)cc1C1CCNCC1` [Ceritinib] as the compound, how does the drug sensitivity score [1] read?
**A.** 0.8 ± 1.1

**Q.** What about the drug sensitivity score [2] of the same compound?
**A.** 1.35 ± 0.78

**Q.** What about the drug sensitivity score [3] of the same compound?
**A.** 0.75 ± 1.1

**Q.** What does the source list for `CCN(CC)CCCC(C)Nc1ccnc2cc(Cl)ccc12` (stereo not given) [Chloroquine]?
**A.** drug sensitivity score [1]: 13.2 ± 5.2; drug sensitivity score [2]: 5.8 ± 0.28; drug sensitivity score [3]: 14.9 ± 5.6

**Q.** Which drug sensitivity score [1] does the source give for `CC(C)[C@H]1C(=O)N[C@@H](CCCNC(=N)N)C(=O)NCC(=O)N[C@@H](CC(=O)O)C(=O)N[C@H](Cc2ccccc2)C(=O)N1C` [Cilengitide] here?
**A.** 0

**Q.** And the drug sensitivity score [2]?
**A.** 0

**Q.** What about the drug sensitivity score [3] of the same compound?
**A.** 0

**Q.** Which drug sensitivity score [1] does the source give for `N.N.[Cl][Pt][Cl]` [Cisplatin] here?
**A.** 6.3 ± 1.4

**Q.** What about the drug sensitivity score [2] of the same compound?
**A.** 5.5 ± 0.14

**Q.** What about the drug sensitivity score [3] of the same compound?
**A.** 7 ± 1.6

**Q.** For `CCN(CC)CCOc1ccc(C(=C(Cl)c2ccccc2)c2ccccc2)cc1` [Clomifene], which drug sensitivity score [1] is on record?
**A.** 6.5 ± 0.28

**Q.** And the drug sensitivity score [2]?
**A.** 6.35 ± 0.49

**Q.** What about the drug sensitivity score [3] of the same compound?
**A.** 8 ± 1.3

**Q.** What does the source list for `O=C(c1ccc(F)c(F)c1Nc1ccc(I)cc1F)N1CC(O)([C@@H]2CCCCN2)C1` [Cobimetinib]?
**A.** drug sensitivity score [1]: 9.05 ± 0.78; drug sensitivity score [2]: 0; drug sensitivity score [3]: 4.6 ± 1.8

**Q.** What does the source list for `COc1c(OCCCN2CCOCC2)ccc2c1N=C(NC(=O)c1cnc(N)nc1)N1CCN=C21` [Copanlisib]?
**A.** drug sensitivity score [1]: 8.65 ± 1.5; drug sensitivity score [2]: 1.4 ± 0.99; drug sensitivity score [3]: 6.1 ± 3.4

**Q.** `CC1(COc2ccc3c(c2)ncn3-c2ccc3cccc(N4CCC(N)CC4)c3n2)COC1` [Crenolanib] was tested. Which drug sensitivity score [1] did it give?
**A.** 12.8 ± 0.49

**Q.** And the drug sensitivity score [2]?
**A.** 6.25 ± 0.49

**Q.** And the drug sensitivity score [3]?
**A.** 10.9 ± 1.5

**Q.** Which results are given for `Nc1ccn([C@@H]2O[C@H](CO)[C@@H](O)[C@@H]2O)c(=O)n1` [Cytarabine]?
**A.** drug sensitivity score [1]: 12.25 ± 0.071; drug sensitivity score [2]: 6.25 ± 0.071; drug sensitivity score [3]: 8.25 ± 4

**Q.** How did the drug sensitivity score [1] turn out when `CC(C)(C)c1nc(-c2cccc(NS(=O)(=O)c3c(F)cccc3F)c2F)c(-c2ccnc(N)n2)s1` [Dabrafenib] was run?
**A.** 2.6 ± 0.85

**Q.** What about the drug sensitivity score [2] of the same compound?
**A.** 2.2 ± 0.42

**Q.** What about the drug sensitivity score [3] of the same compound?
**A.** 0.05 ± 0.071

**Q.** With `COc1cc2ncnc(Nc3ccc(F)c(Cl)c3)c2cc1NC(=O)/C=C/CN1CCCCC1` [Dacomitinib] as the compound, how does the drug sensitivity score [1] read?
**A.** 1.05 ± 1.5

**Q.** What about the drug sensitivity score [2] of the same compound?
**A.** 0.25 ± 0.35

**Q.** And the drug sensitivity score [3]?
**A.** 1.8 ± 2.3

**Q.** For `Cn1c(=O)n(-c2ccc(C(C)(C)C#N)cc2)c2c3cc(-c4cnc5ccccc5c4)ccc3ncc21` [Dactolisib], which drug sensitivity score [1] is on record?
**A.** 16.9 ± 0.42

**Q.** What about the drug sensitivity score [2] of the same compound?
**A.** 14.4 ± 0.35

**Q.** What about the drug sensitivity score [3] of the same compound?
**A.** 18.3 ± 0.28

**Q.** Which drug sensitivity score [1] does the source give for `O=C(/C=C/c1cccnc1)NCCCCC1CCN(C(=O)c2ccccc2)CC1` [Daporinad] here?
**A.** 19.4 ± 0.35

**Q.** What about the drug sensitivity score [2] of the same compound?
**A.** 15.9 ± 0.71

**Q.** And the drug sensitivity score [3]?
**A.** 20.5 ± 4.7
